Test results reported in patent US8518956B2, “1-(1-(2-ethoxyethyl)-3-ethyl-7-(4-methylpyridin-2-ylamino)-1H-pyrazolo[4,3-d]pyrimidin-5-yl) piperidine-4-carboxylic acid and salts thereof” (priority 2005, dated 2013).

Assay: Method 11: Single Dose Pharmacokinetics and Oral Bioavailability in Male Sprague-Dawley Rat
Assay type: in vivo
Conditions: mean; for AUC(0-inf) / clearance / half-life / Vd / Cmax / Tmax: plasma, 2 mg/kg; for Vd: read-out: Vdss; for F: po 2 mg/kg vs iv 2 mg/kg
Experimental: Repeat testing is recommended in order to establish a valid assay test result. P. Pharmacokinetic/Pharmacodynamic Study Method 11: Single Dose Pharmacokinetics and Oral Bioavailability in Male Sprague-Dawley Rat Following Intravenous and Oral Administration
An in vivo model can be used to evaluate the single dose pharmacokinetic properties and absolute oral bioavailability of a test compound. As described more specifically below, a test compound is administered to Sprague-Dawley (SD) rats either intravenously or orally in a crossover study design and the resulting pharmacokinetic properties and oral bioavailability are measured.
Male rats are administered a 2.0 mg/kg dose orally (n=2) by gavage as a suspension (0.5% methylcellulose/0.1% Tween 80 in distilled water). After a 72 hour wash-out periond, the same rats were administered 2.0 mg/kg dose bolus intravenously (n=2) as a solution (70% PEG 400/20% 0.05 M Citrate Buffer pH 3/10% Ethanol). Serial blood samples (for plasma) are collected from each rat over a 24 hour post dose for each route. […] Pharmacokinetic parameters of a test compound are determined from the plasma concentration-time data using non-compartmental methods. • LC/MS/MS: 1) Column: Hyperso; AQUASIL C-18 2.1×20 mm, 3.0 μm; 2) Mobile phase: Aqueous Water with 0.1% Formic Acid, Orgainic: Acetonitrile; Ionization: +ESI (API 4000). MRM: m/z 494.4→m/z 394.0 (Example 261 in WO2004096810), m/z 509.44→m/z 409.80 (Example 263 in WO2004096810), m/z 495.33→m/z 395.20 (Example 262 in WO2004096810). The detection limits are 0.12 ng/mL (Example 261 in WO2004096810), 1.3 ng/mL (Example 263 in WO2004096810) and 0.11 ng/mL (Example 262 in WO2004096810).
Watson (Version 6.4.0.04) is used to calculate mean test compound concentrations, corresponding standard deviations (SD), and percent coefficient of variation (% CV), and to estimate pharmacokinetic parameters (derived by noncompartmental methods) and associated statistics (mean, SD & CV %) if applicable. (Since n=2, no SD or CV calculated ?). Concentrations below the limit of quantitation (BLQ) are reported as zero (0) and are used in the evaluation of mean concentrations and the estimation of AUC. The peak plasma concentration (Cmax) and the time to reach peak concentration (tmax) are recorded directly from individual plasma concentration-time profiles. The terminal log-linear phase of the plasma concentration-time curve is identified by linear regression of data points. The terminal half-life (t1/2) is calculated as ln(2) divided by absolute value of the slope of the terminal log-linear phase. The area under the plasma concentration-time curve from time zero to time of the last quantifiable concentration (t) [AUC(0-t)] is determined using the linear trapezoidal method. The area under the plasma concentration-time curve from time zero to infinity [AUC(0-∞)] is determined as AUC(0-t) plus the extrapolated area. The extrapolated area is determined by dividing the last observed plasma concentration by the slope of the terminal log-linear phase. Systemic plasma clearance (CL) is calculated as dose/AUC(0-∞) while the volume of distribution at steady state (Vdss) is calculated as CL×MRT, where MRT (mean residence time) is defined as AUMC(0-∞)/AUC(0-∞). The absolute PO bioavailability (F) is calculated as a ratio of the dose-normalized AUC(0-∞) of individual animal after PO administration to the dose-normalized AUC(0-∞) of individual animal after IV administration given the crossover study design.

Cc1ccnc(Nc2nc(N3CCC(C(=O)O)CC3)nc3c(C)nn(CCOCC(F)(F)F)c23)c1 [WO2004096810 Example 261]
AUC(0-inf) (iv): 19000 ng·h/mL
clearance (iv): 1.75 mL/min/kg
half-life (iv): 6.4 h
Vd (iv): 0.564 L/kg
AUC(0-inf) (po): 20000 ng·h/mL
Cmax (po): 2350 ng/mL
Tmax (po): 0.67 h
half-life (po): 6.7 h
F: 105%

Cc1cc(Nc2nc(N3CCC(C(=O)O)CC3)nc3c(C)nn(CCOCC(F)(F)F)c23)ncn1 [WO2004096810 Example 262]
AUC(0-inf) (iv): 440 ng·h/mL
clearance (iv): 76.3 mL/min/kg
half-life (iv): 5.5 h
Vd (iv): 6.11 L/kg
AUC(0-inf) (po): 280 ng·h/mL
Cmax (po): 87.1 ng/mL
Tmax (po): 0.67 h
half-life (po): 3.4 h
F: 63.9%

CCc1nn(CCOCC(F)(F)F)c2c(Nc3cc(C)ncn3)nc(N3CCC(C(=O)O)CC3)nc12 [WO2004096810 Example 263]
AUC(0-inf) (iv): 555 ng·h/mL
clearance (iv): 60.1 mL/min/kg
half-life (iv): 4.5 h
Vd (iv): 5.07 L/kg
AUC(0-inf) (po): 329 ng·h/mL
Cmax (po): 102 ng/mL
Tmax (po): 0.33 h
half-life (po): 3.8 h
F: 60.0%
